These results are taken from ChEMBL document CHEMBL1201862, “PubChem BioAssay data set” (2004).

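Cells were grown in 96-well plates and exposed to each compound for 48 hours at five concentrations; endpoints were interpolated linearly between bracketing concentrations, or set to the highest concentration if not reached. Abbreviation: GI50, concentration required for 50% inhibition of growth.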 Activity calls are given as the source filed them. Cut-off read from the data, not from the text of the source: active = GI50 up to about 1.1 µM and inactive = higher.

Some test systems named below: IGROV-1; SR; K562; 786-0; SF-295; HOP-62; SNB-75; NCI-H460; NCI-H522; EKVX; MDA-MB-435; HCT-15; CAKI-1; OVCAR-4; CCRF-CEM; U-251; HT-29; OVCAR-5; HCT-116; T47D.
Assay in all cases: growth of human tumour cells (NCI), 48 h

Consider `Oc1cc(O)c2c(c1)OC(c1ccc(O)c(O)c1)C(OC1(c3cc(O)c(O)c(O)c3)Oc3cc(O)cc(O)c3C(O)C1O)C2` (stereo not given), for which the GI50 in the experiment on IGROV-1 was 30.7 µM (inactive); in the experiment on SR, 29.2 µM (inactive); in the experiment on K562, 21.1 µM (inactive); in the experiment with 786-0, 25.7 µM (inactive); in the experiment on SF-295, 33.1 µM (inactive); with HOP-62 it was 24 µM (inactive). Also, the GI50 with SNB-75 was 26.4 µM (inactive); with NCI-H460, 18.4 µM (inactive); with NCI-H522, 21.4 µM (inactive); with EKVX, 15.6 µM (inactive); in the experiment on MDA-MB-435, 15.7 µM (inactive); with HCT-15, 36 µM. Also, the GI50 was 29.8 µM (inactive) in the experiment on CAKI-1; 26.4 µM (inactive) with OVCAR-4; 15.1 µM (inactive) in the experiment on CCRF-CEM; 20.8 µM (inactive) in the experiment with U-251; 18.1 µM (inactive) in the experiment on HT-29; 21.8 µM (inactive) with OVCAR-5. The GI50 in the experiment with HCT-116 was 24.6 µM (inactive); with T47D it was 37.6 µM (inactive).
